Laboratory results published in patent US10918648B2, “Estrogen receptor modulator combinations” (The Regents of the University of California, priority 2016, dated 2021).

Experiments:
estrogen receptor = molecular target: T1, estrogen receptor (Homo sapiens, UniProt P03372); experiment: Specific [3H]estradiol-17β binding by MCF-7 parental cells; settings: 2 nM [3H]estradiol-17β, compounds at 10 μM, FIG. 5A
T1 construct: endogenous in cells; host or cells: MCF-7 parental (MCF-7/CON) human breast cancer cells
T1 sequence (P03372 1-595): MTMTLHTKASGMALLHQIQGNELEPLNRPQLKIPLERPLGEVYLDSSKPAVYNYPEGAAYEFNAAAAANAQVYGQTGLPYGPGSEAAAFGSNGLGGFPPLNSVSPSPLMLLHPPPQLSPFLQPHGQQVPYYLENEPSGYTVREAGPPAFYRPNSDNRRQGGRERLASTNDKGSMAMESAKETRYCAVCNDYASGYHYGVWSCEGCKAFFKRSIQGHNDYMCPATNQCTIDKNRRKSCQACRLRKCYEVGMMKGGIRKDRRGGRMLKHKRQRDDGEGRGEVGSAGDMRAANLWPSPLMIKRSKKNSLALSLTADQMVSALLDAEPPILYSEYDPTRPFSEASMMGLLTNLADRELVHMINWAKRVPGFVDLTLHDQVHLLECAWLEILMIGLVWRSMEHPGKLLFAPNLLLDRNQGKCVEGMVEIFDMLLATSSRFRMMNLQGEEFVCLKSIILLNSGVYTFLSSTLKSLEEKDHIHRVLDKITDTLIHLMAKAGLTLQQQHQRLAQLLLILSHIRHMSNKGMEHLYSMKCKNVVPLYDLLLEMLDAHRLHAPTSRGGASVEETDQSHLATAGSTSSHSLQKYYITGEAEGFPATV
Method: Specific estradiol binding: Specific estradiol-17β (E2) binding was assessed in MCF-7 parental breast cancer cells as before (14-16). […] MCF-7 cells were incubated with 2 nM [^3H]estradiol-17β and antiestrogens (all at 10 μM concentration; numbers Si to S15), with ICI 182,780 (ICI; fulvestrant) used as a control (n=3). Compounds S1-S14 are test compounds different from the exemplified compounds described herein.

cleaved PARP = experiment: PARP cleavage, Western blot in A549 cells; assay type: cell-based, human; settings: A549 cells, 0.01, 0.1 and 1 μM, 4 hours, 5% DCC-FBS; FIG. 2B
Method: FIG. 2B. […] A549 cells were treated in 5% DCC-FBS phenol-red free RPMI1640 with vehicle control (C) or increasing concentrations of JD140 at 0.01, 0.1 and 1 μM or 0.1 μM fulvestrant (F) for 4 hours. Western Blots were performed using anti-cleaved-PARP antibody (Cell Signaling Technology). RPL13A is shown as loading control. The Western blot is representative of 3 independent experiments.
We next assessed the effect of SERD compound 140 on the stimulation of NSCLC cell apoptosis by measurement of PARP cleavage at increasing drug doses (see FIG. 2B).
Gel electrophoresis and immunoblotting: Breast and lung tumor cells were treated in phenol-red free RPMI1640/DMEM with 5% DCC-FBS (26). After selected treatments cells were homogenized in the presence of protease inhibitors using RIPA buffer (Thermo Scientific). All procedures were performed in ice, lysates were centrifuged and protein concentration quantified in the supernatants using a Thermo Scientific® BCA protein assay kit. Approximately 20-60 μg of total protein were heated in the presence of Laemmli sample buffer (Biorad) to 100° C. for 10 min and loaded it on a gradient TGX gel 4-15% (Biorad). Gels were transferred to PVDF membranes for immunoblotting. Membranes were blocked either with 5% milk in Tris Buffer Saline with 0.1% Tween 20 or protein-free blocking solution (Thermo Scientific). […]

Row | SMILES | specific binding of [3H]estradiol-17β (estrogen receptor) | specific binding of [3H]estradiol-17β (estrogen receptor; listed as S15) | PARP cleavage (cleaved PARP)
1 | C[C@]12C[C@H](Oc3ccc(N)cc3)[C@@H]3c4ccc(O)cc4CC[C@H]3[C@@H]1CC[C@@H]2O [JD105, (8S,9S,11S,13S,14S,17S)-11-(4-aminophenoxy)-13-methyl-7,8,9,11,12,13,14,15,16,17-decahydro-6H-cyclopenta[a]phenanthrene-3,17-diol] | suppressed | suppressed effectively | –
2 | C[C@]12C[C@H](Oc3ccc(NC(=O)CCCCN4CCCCC4)c(F)c3)[C@@H]3c4ccc(O)cc4CC[C@H]3[C@@H]1CC[C@@H]2O [JD140, N-(4-(((8S,9S,11S,13S,14S,17S)-3,17-Dihydroxy-13-methyl-7,8,9,11,12,13,14,15,16,17-deca-hydro-6H-cyclopenta[a]phenanthren-11-yl)oxy)-2-fluorophenyl)-5-(piperidin-1-yl)pentan-amide] | – | – | enhanced PARP cleavage
